According to PMC5397059, “Design, synthesis and structure-activity relationship study of wollamide B; a new potential anti TB agent” (PLoS ONE, 2017):
Like-named read-outs stand apart in the source and are kept apart here. Non-standard residues stand in square brackets, D forms with d. Residues, ends and D or L forms follow the SMILES beside them. NMeN = CN[C@@H](CC(N)=O)C(=O)O; NMeL = CN[C@@H](CC(C)C)C(=O)O; dNMeL = CN[C@H](CC(C)C)C(=O)O; NMeV = CN[C@H](C(=O)O)C(C)C; dOrn = NCCC[C@@H](N)C(=O)O

Assays:
[1] = Chemi-Luminescent Nitrogen Detection (CLND) kinetic solubility assay; format: physicochemical; settings: phosphate buffered saline, pH 7.4; kinetic aqueous solubility by CLND; read-out: Solubility
Description: GSK in-house kinetic solubility assay: 5 μL of 10mM DMSO stock solution diluted to 100 uL with pH7.4 phosphate buffered saline, equilibrated for 1 hour at room temperature, filtered through Millipore Multiscreen HTS-PCF filter plates (MSSL BPC).
The filtrate is quantified by suitably calibrated flow injection CLND. The standard error of the CLND solubility determination is ±30 μM, the upper limit of the solubility is 500 μM when working from 10 mM DMSO stock solution.

Chrom logD assay = format: physicochemical; settings: pH 7.4, read-out: Log D
Description: The Chromatographic Hydrophobicity Index (CHI) values were measured using a reversed phase HPLC column (50 x 2 mmx 3 μMGemini NX C18, Phenomenex, UK) with fast acetonitrile gradient at starting mobile phase of 100% pH = 7.4 buffer. CHI values are derived directly from the gradient retention times by using a calibration line obtained for standard compounds. The CHI value approximates to the volume % organic concentration when the compound elutes. CHI is linearly transformed into ChromlogD by the formula: ChromlogD=0.0857CHI−2.00
The average error of the assay is ±3 CHI unit or ±0.25 ChromlogD.

[2] = Artificial membrane permeability assay; format: in vitro ADME; settings: PAMPA, pH 7.4; passive artificial membrane permeability; read-out: Permeability
Description: A 8% L-a-phosphatidylcholine (EPC) in 1% cholesterol decane solution and a 1.8% EPC in cholesterol decane solution were prepared. The lipid solution was then aliquoted into 4 mL capped vials, sealed with parafilm and stored in-20°Cfreezer. The lipid solution was then transferred from 4 mL vial into 96-well half area plate (130μL/well) for daily assay usage. An additional 50 mM phosphate buffer with 0.5% encapsin, pH at 7.4 was prepared. The assay was run by the Biomek FX and Biomek software. The assay procedure is written under the Biomek software. For one batch assay, it can test two 96-well sample plates with at least one standard on each sample plate. The total assay time was about 4 hours. 3.5 μL of lipid solution were added to the filler plate, shaken for 12 seconds, and 250 μL of buffer were added to donor side and 100 μL to the receiver side. The assay plate was shaken for 45 min before adding the compounds. The test compounds (2.5 μL) were added to the donor side. The assay was run as replicates: Assay plates1 and 2 tested the sample plate 1; assay plates 3 and 4 tested the sample plate 2. The assay plates were then incubated and shaken for 3 hours at room temperature.
The assay samples were transferred to the HPLC analysis plates and 100 μL of receiver solution were aspirated and transferred to the receiver for analysis. Similarly, another 100 μL from the donor solution were transferred to the donor analysis plate.
Compound concentration was measured by HPLC at different time-points and permeability was established as nm/sec.

human serum albumin = human serum albumin (Homo sapiens, UniProt P02768); assay: Human serum albumin (HSA) binding assay; format: in vitro ADME; settings: human serum albumin binding
Description: HSA binding assay was performed according to the method described by Valko K, et al. The basic principle of the measurements is the determination of gradient retention times of compounds on immobilized HSA column and converting these retention times to the appropriate property values using calibration. The peaks are detected and identified by UV. Calibration sets of compounds are measured before each run for which the HSA binding values are known. The retention times of the calibration set of compounds are plotted against these known values. The slope and the intercept of the obtained straight lines are used to calculate the HSA binding for the unknown compounds.

[3] = Intrinsic clearance (CLint) assay, mouse liver microsomes; format: in vitro ADME; settings: for % LBF Mouse: liver blood flow; for CLint Mouse: mouse liver microsomes; for half-life at 0.5 µM: mouse, pooled mouse liver microsomes, pH 7.4, read-out: Microsomal t1/2 Mouse; for CLpred Mouse: predicted metabolic clearance
Description: (§1) Pooled mouse and human liver microsomes are purchased from Xenotech. Microsomes (final protein concentration 0.5 mg/mL, MgCl2 (final concentration = 5 mM) and test compound (final substrate concentration = 0.5] M; final DMSO concentration = 0.5%) in 0.1 M phosphate buffer pH 7.4 are pre-incubated at 37°C prior to the addition of NADPH (final concentration = 1 mM) to initiate the reaction. The final incubation volume is 600 μL.
(§2) Control incubation is included for each compound tested where 0.1 M phosphate buffer pH 7.4 is added instead of NADPH (minus NADPH). One control compound is included with each species. All incubations are performed singularly for each test compound. Each compound is incubated for 45 minutes and samples (100 μL) of incubate are taken at 0, 5, 15, 30 and 45 min. The control (minus NADPH) is sampled at 30 min only. The reactions are stopped by the addition of sample to 200 μL Acetonitrile: Methanol 3:1 containing internal standard. The terminated samples are centrifuged at 2,500 rpm for 20 min at 4°C to precipitate the protein. Quantitative analysis: following protein precipitation, the samples were analyzed using specific LC-MS/MS conditions. Data analysis: from a plot of ln peak area ratio (compound peak area/internal standard peak area) against time, the gradient of the line was determined. Subsequently, half-life and intrinsic clearance were calculated using the equations below: Eliminationrateconstant(K)=(−gradient) Halflife(t1/2)(min)=0.693/K Cli(mL/min/gprotien)=V×0.693/t1/2 WhereV=Incubationvolume(mL/gmicrosomalprotien)

[4] = Intrinsic clearance (CLint) assay, human liver microsomes; format: in vitro ADME; settings: for CLint Human: human liver microsomes; for half-life at 0.5 µM: human, pooled human liver microsomes, pH 7.4, human liver microsomes, read-out: Microsomal t1/2 Human; for % LBF Human: liver blood flow; for CLpred Human: predicted metabolic clearance
Description: as §1, §2

[5] = amide bond, 18-membered ring, HATU/HOBt/DIEA
[6] = reversed phase HPLC column (Gemini NX C18)

Sequence of human serum albumin (P02768 25-609): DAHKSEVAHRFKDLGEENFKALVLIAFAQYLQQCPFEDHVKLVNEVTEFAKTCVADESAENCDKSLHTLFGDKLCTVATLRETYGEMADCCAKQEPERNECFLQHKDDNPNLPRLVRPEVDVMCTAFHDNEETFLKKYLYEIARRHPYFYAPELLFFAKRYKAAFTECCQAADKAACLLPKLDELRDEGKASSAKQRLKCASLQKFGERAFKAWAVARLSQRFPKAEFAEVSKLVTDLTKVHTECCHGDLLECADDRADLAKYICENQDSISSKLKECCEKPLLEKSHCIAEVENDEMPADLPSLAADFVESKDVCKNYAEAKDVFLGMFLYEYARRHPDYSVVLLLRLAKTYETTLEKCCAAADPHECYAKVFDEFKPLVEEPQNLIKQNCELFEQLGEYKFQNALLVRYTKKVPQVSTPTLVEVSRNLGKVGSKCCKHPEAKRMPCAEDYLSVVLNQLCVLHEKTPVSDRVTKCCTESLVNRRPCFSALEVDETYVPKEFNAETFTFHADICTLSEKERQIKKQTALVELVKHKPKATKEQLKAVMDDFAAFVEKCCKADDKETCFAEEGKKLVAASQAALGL

CC[C@H](C)[C@@H]1NC(=O)[C@@H](CC(C)C)NC(=O)[C@H](CC(C)C)NC(=O)[C@H](Cc2c[nH]c3ccccc23)NC(=O)[C@@H](CCCNC(=N)N)NC(=O)[C@H](CC(N)=O)NC1=O [Compound 13c] (cyclo(IN[dR]WL[dL]))
solubility kinetic at 1 h [1]: ≥ 189 µg/mL
chromatographic logD (Chrom logD assay): 2.05
Papp at 3 h [2]: 1.1 ×10⁻⁶ cm/s
% HSA (human serum albumin): 87.55%
% LBF Mouse [3]: 29.00%
CLint Mouse [3]: 1.01 mL/min/g tissue
half-life at 0.5 µM [3]: 1.05 h
CLpred Mouse [3]: 36.60 mL/min/kg
CLint Human [4]: 7.44 mL/min/g tissue
half-life at 0.5 µM [4]: 0.123 h
% LBF Human [4]: 91.01%
CLpred Human [4]: 16.38 mL/min/kg

CC(C)C[C@H]1NC(=O)[C@H](CC(C)C)N(C)C(=O)[C@H](Cc2c[nH]c3ccccc23)NC(=O)[C@@H](CCCN)NC(=O)[C@H](CC(N)=O)NC(=O)[C@H](C(C)C)N(C)C1=O [Compound 24c] (cyclo(N[dOrn]W[NMeL][dL][NMeV]))
solubility kinetic at 1 h [1]: ≥ 217 µg/mL
chromatographic logD (Chrom logD assay; [6]): 2.18
Papp at 3 h [2]: < 1 ×10⁻⁶ cm/s
% HSA (human serum albumin): 87.02%
% LBF Mouse [3]: 42.0%
CLint Mouse [3]: 1.79 mL/min/g tissue
half-life at 0.5 µM [3]: 0.261 h
CLpred Mouse [3]: 52.90 mL/min/kg
CLint Human [4]: 3.51 mL/min/g tissue
half-life at 0.5 µM [4]: 0.621 h
% LBF Human [4]: 82.70%
CLpred Human [4]: 14.90 mL/min/kg

CC(C)C[C@@H]1NC(=O)[C@H](Cc2c[nH]c3ccccc23)NC(=O)[C@@H](CCCN)NC(=O)[C@H](CC(N)=O)N(C)C(=O)[C@H](C(C)C)NC(=O)[C@@H](CC(C)C)N(C)C1=O [Compound 25c] (cyclo(L[dNMeL]V[NMeN][dOrn]W))
solubility kinetic at 1 h [1]: ≥ 221 µg/mL
chromatographic logD (Chrom logD assay; [6]): 2.25
Papp at 3 h [2]: < 1 ×10⁻⁶ cm/s
% HSA (human serum albumin): 82.97%
% LBF Mouse [3]: <16.3%
CLint Mouse [3]: <0.48 mL/min/g tissue
half-life at 0.5 µM [3]: > 2.31 h
CLpred Mouse [3]: <20.50 mL/min/kg
CLint Human [4]: <0.40 mL/min/g tissue
half-life at 0.5 µM [4]: > 2.31 h
% LBF Human [4]: <35.08%
CLpred Human [4]: <6.35 mL/min/kg

COc1ccc(C[C@@H]2NC(=O)[C@@H](CCCN)NC(=O)[C@H](CC(N)=O)NC(=O)[C@H](C(C)C)NC(=O)[C@@H](CC(C)C)NC(=O)[C@H](CC(C)C)NC2=O)cc1 [Compound 15c] (cyclo(L[dL]VN[dOrn]Y(Me)))
solubility kinetic at 1 h [1]: ≥ 189 µg/mL
chromatographic logD (Chrom logD assay; [6]): 1.73
Papp at 3 h [2]: < 1 ×10⁻⁶ cm/s
% HSA (human serum albumin): 46.55%
% LBF Mouse [3]: 24.00%
CLint Mouse [3]: 0.78 mL/min/g tissue
half-life at 0.5 µM [3]: 1.43 h
CLpred Mouse [3]: 30.20 mL/min/kg
CLint Human [4]: <0.40 mL/min/g tissue
half-life at 0.5 µM [4]: > 2.31 h
% LBF Human [4]: <35.08%
CLpred Human [4]: <6.35 mL/min/kg

CC(C)C[C@H]1NC(=O)[C@H](CC(C)C)N(C)C(=O)[C@H](Cc2c[nH]c3ccccc23)NC(=O)[C@@H](CCCN)NC(=O)[C@H](CC(N)=O)N(C)C(=O)[C@H](C(C)C)NC1=O [Compound 23c] (cyclo([NMeL][dL]V[NMeN][dOrn]W))
solubility kinetic at 1 h [1]: ≥ 174 µg/mL
chromatographic logD (Chrom logD assay; [6]): 2
Papp at 3 h [2]: < 1 ×10⁻⁶ cm/s
% HSA (human serum albumin): 82.21%
% LBF Mouse [3]: 30.00%
CLint Mouse [3]: 1.06 mL/min/g tissue
half-life at 0.5 µM [3]: 1.05 h
CLpred Mouse [3]: 37.80 mL/min/kg
CLint Human [4]: 3.19 mL/min/g tissue
half-life at 0.5 µM [4]: 0.287 h
% LBF Human [4]: 81.29%
CLpred Human [4]: 14.63 mL/min/kg

CC(C)C[C@@H]1NC(=O)[C@H](Cc2c[nH]c3ccccc23)NC(=O)[C@@H](CCCN)NC(=O)[C@H](CC(N)=O)NC(=O)[C@H](C(C)C)N(C)C(=O)[C@@H](CC(C)C)NC1=O [Compound 22c] (cyclo(L[dL][NMeV]N[dOrn]W))
solubility kinetic at 1 h [1]: ≥ 153 µg/mL
chromatographic logD (Chrom logD assay; [6]): 1.96
Papp at 3 h [2]: < 1 ×10⁻⁶ cm/s
% HSA (human serum albumin): 73.98%
% LBF Mouse [3]: <16.3%
CLint Mouse [3]: <0.48 mL/min/g tissue
half-life at 0.5 µM [3]: > 2.31 h
CLpred Mouse [3]: <20.50 mL/min/kg
CLint Human [4]: <0.40 mL/min/g tissue
half-life at 0.5 µM [4]: > 2.31 h
% LBF Human [4]: <35.08%
CLpred Human [4]: <6.35 mL/min/kg

CC[C@H](C)[C@@H]1NC(=O)[C@@H](CC(C)C)NC(=O)[C@H](CC(C)C)NC(=O)[C@H](Cc2c[nH]c3ccccc23)NC(=O)[C@@H](CCCN)NC(=O)[C@H](CO)NC1=O [Compound 10c] (cyclo(IS[dOrn]WL[dL]))
solubility kinetic at 1 h [1]: ≥ 228 µg/mL
chromatographic logD (Chrom logD assay; [6]): 2.16
Papp at 3 h [2]: < 1 ×10⁻⁶ cm/s
% HSA (human serum albumin): 86.47%
% LBF Mouse [3]: <16.3%
CLint Mouse [3]: <0.48 mL/min/g tissue
half-life at 0.5 µM [3]: > 2.31 h
CLpred Mouse [3]: <20.50 mL/min/kg
CLint Human [4]: 9.77 mL/min/g tissue
half-life at 0.5 µM [4]: 0.0938 h
% LBF Human [4]: 93.00%
CLpred Human [4]: 16.70 mL/min/kg

CC(C)C[C@@H]1NC(=O)[C@@H](CC(C)C)NC(=O)[C@H](C(C)C)NC(=O)[C@H](CC(=O)NC(c2ccccc2)(c2ccccc2)c2ccccc2)NC(=O)[C@@H](CCCNC(=O)OC(C)(C)C)NC(=O)[C@H](Cc2cn(C(=O)OC(C)(C)C)c3ccccc23)NC1=O [cyclo(Trp (Boc)-D-Orn (Boc)-Asn(Trt)-Val-D-Leu-Leu)]
ring closure, isolated yield ([5]; from H-Trp(Boc)-dOrn(Boc)-Asn(Trt)-Val-dLeu-Leu-OH, DMF, 1.0 mM): 50%

CC(C)C[C@@H]1NC(=O)[C@H](Cc2cn(C(=O)OC(C)(C)C)c3ccccc23)NC(=O)[C@@H](CCCNC(=O)OC(C)(C)C)NC(=O)[C@@H](CCCNC(=O)OC(C)(C)C)NC(=O)[C@H](C(C)C)NC(=O)[C@@H](CC(C)C)NC1=O [cyclo(D-Leu-Val-D-Orn(Boc)-D-Orn(Boc)-Trp(Boc)-Leu)]
ring closure, isolated yield ([5]; from H-dLeu-Val-dOrn(Boc)-dOrn(Boc)-Trp(Boc)-Leu-OH): 40%

CC(C)C[C@@H]1NC(=O)[C@H](Cc2cn(C(=O)OC(C)(C)C)c3ccccc23)NC(=O)[C@@H](CCCNC(=O)OC(C)(C)C)NC(=O)[C@H](CC(=O)NC(c2ccccc2)(c2ccccc2)c2ccccc2)N(C)C(=O)[C@H](C(C)C)NC(=O)[C@@H](CC(C)C)N(C)C1=O [cyclo(Trp(Boc)-Leu-N-Me-D-Leu-Val-N-Me-Asn(Trt)-D-Orn(Boc))]
ring closure, isolated yield ([5]; from H-Trp(Boc)-Leu-dMeLeu-Val-MeAsn(Trt)-dOrn(Boc)-OH): 60%
